From ChEMBL document CHEMBL2417420, “Autotaxin inhibition: development and application of computational tools to identify site-selective lead compounds” (Bioorg Med Chem, 2013)
Peptide text beside a SMILES is read from it. * marks the point of attachment. Cbz = O=C(OCc1ccccc1)*

Target: Autotaxin (Homo sapiens, UniProt Q13822)
Assay: Inhibition of C-terminal FLAG-tagged human recombinant autotaxin using synthetic substrate FS-3 at 10 uM measured every 2 mins by FRET assay relative to control

`COc1cc(CCNC(=O)c2ccc3c(c2)nc(-c2ccccc2)n3CCc2ccc(OC)c(OC)c2)cc(OC)c1` and `COc1cccc(CCNC(=O)c2ccc3c(c2)nc(-c2cc(OC)cc(OC)c2)n3CCc2ccc(OC)c(OC)c2)c1` are the same in inhibition: 20% for the first, 20% for the second.

Compared with `COc1cc(C2CC(=O)NC(SCC(N)=O)=C2C#N)ccc1O` (stereo not given), `COc1cc(C2CC(=O)NC(SCc3ccccc3)=C2C#N)ccc1O` (stereo not given) is higher in inhibition: 0% for the first, 30% for the second.

Going from `CCCCn1c(CN2CC(C)CC(C)C2)nc2cc(C(=O)NCC(O)CO)ccc21` (stereo not given) to `O=C(NCC(O)CO)c1ccc2c(c1)nc(CN1CCC(CCO)CC1)n2CCc1ccccc1` (stereo not given), the inhibition rises from 0% to 10%.

`CC(O)C(NC(=O)c1ccc(N2CCN(C(=O)CCC(=O)c3ccccc3)CC2)nc1)C(N)=O` (stereo not given) and `CC(O)C(NC(=O)c1ccc(N2CCCN(C(=O)CCC(=O)c3ccccc3)CC2)nc1)C(N)=O` (stereo not given) are the same in inhibition: 20% for the first, 20% for the second.

Compared with `COc1ccc(C2CC(=O)NC(SCC(=O)Nc3ccc(I)cc3)=C2C#N)cc1` (stereo not given), `N#CC1=C(SCC(=O)Nc2ccc(Br)cc2)NC(=O)CC1c1ccc(O)cc1` (stereo not given) is lower in inhibition: 20% for the first, 10% for the second.

Going from `O=C(Cc1ccccc1OC(=O)Cn1c(=O)sc2ccccc21)Cn1c(=O)sc2ccccc21` to `COc1ccccc1/C=C1\SC(=O)N(CCC(=O)N2c3ccccc3Sc3ccccc32)C1=O`, the inhibition rises from 0% to 20%.

`COc1cccc(CCNC(=O)c2ccc3c(c2)nc(-c2cc(OC)c(OC)c(OC)c2)n3CCc2ccc(OC)c(OC)c2)c1` and `COc1ccc(CCn2c(-c3cc(OC)c(OC)c(OC)c3)nc3cc(C(=O)NCCc4ccccc4)ccc32)cc1OC` are the same in inhibition: 30% for the first, 30% for the second.

Compared with `O=C(O)c1cc(-c2ccc(/C=C3/SC(=S)N(CCc4ccccc4)C3=O)o2)ccc1Cl`, `O=C(O)c1cccc(/N=C2\S/C(=C\c3ccc(-c4cccc(Cl)c4)o3)C(=O)N2Cc2ccccc2)c1` is lower in inhibition: 20% for the first, 0% for the second.

`COc1ccccc1C1CC(=O)NC(SCC(=O)Nc2ccc(Br)cc2)=C1C#N` (stereo not given) and `N#CC1=C(SCC(=O)Nc2ccc(Br)cc2)NC(=O)CC1c1cccc(O)c1` (stereo not given) are the same in inhibition: 30% for the first, 30% for the second.

Compared with `O=[N+]([O-])c1cc(/C=N/c2ccc3nc(SCc4ccc(Br)cc4)sc3c2)ccc1O`, `COc1cc(/C=N/NC(=O)c2ccc(CN3C(=O)c4cccc5cccc3c45)cc2)cc(Br)c1O` is higher in inhibition: 0% for the first, 10% for the second.

First: CC(C)(C)c1cc(/C=C/C(=O)Nc2ccc(CNC(=O)C(C#N)=C3CCCCC3)cc2)cc(C(C)(C)C)c1O
Second: COc1cc(/C=N/NC(=O)c2ccc(NC(=O)c3ccc(F)cc3)cc2)cc(Cl)c1O
The inhibition of the first is higher: 20% for the first, 10% for the second.

First: COc1ccc(CCn2c(C(C)Oc3ccccc3)nc3cc(C(=O)NCCOCCO)ccc32)cc1OC (stereo not given)
Second: COc1ccc(CCn2c(CCc3ccccc3)nc3cc(C(=O)NCCOCCO)ccc32)cc1OC
The inhibition of the first is higher: 20% for the first, 10% for the second.

Compared with `CCC(C)C(NC(=O)OCc1ccccc1)C(=O)NC(Cc1ccc(O)cc1)C(N)=O` (stereo not drawn) (Cbz-Ile-Tyr-NH2; configuration not given here), `CC1CN(c2ccc(C(=O)NC(Cc3ccc(O)cc3)C(N)=O)cn2)CCN1C(=O)C(N)Cc1ccccc1` (stereo not given) is higher in inhibition: 0% for the first, 10% for the second.

First: CC(C)c1ccc(OCC(=O)N2CCN(c3ncccc3C(=O)N3CCCC3C(N)=O)CC2C)cc1 (stereo not given)
Second: CC(C)c1ccc(OCC(=O)N2CCC(CCCC3CCN(c4ccc(C(=O)N5CCCC5C(N)=O)cn4)CC3)CC2)cc1 (stereo not given)
The inhibition of the first is higher: 30% for the first, 0% for the second.

`COc1cc(/C=N/NC(=O)c2cc(-c3ccc4ccccc4c3)n[nH]2)ccc1O` and `COc1ccc(-c2cc(C(=O)N/N=C/c3cc(OC)c(O)c(OC)c3)[nH]n2)cc1OC` are the same in inhibition: 10% for the first, 10% for the second.

Compared with `COc1cc([C@@H]2C(C(=O)c3cccs3)=C(O)C(=O)N2CCc2ccccc2)cc(Br)c1O`, `COc1cc(C2CC(=O)NC(SCC(=O)Nc3ccccc3C)=C2C#N)cc(Br)c1O` (stereo not given) is higher in inhibition: 20% for the first, 30% for the second.

Compared with `O=C(O)[C@@H](Cc1ccc(O)cc1)/N=C1\S/C(=C\c2ccc(-c3cccc(Cl)c3)o2)C(=O)N1c1ccccc1`, `O=C(O)[C@@H](Cc1ccccc1)N1C(=O)/C(=C/c2cccc(Oc3ccc(Cl)cc3)c2)SC1=S` is lower in inhibition: 30% for the first, 10% for the second.

First: CC1CCC(OCC(=O)N2CCN(c3ncccc3C(=O)N3CCCC3C(N)=O)CC2)C(C(C)C)C1 (stereo not given)
Second: Cc1cc(C)cc(CC(=O)N2CCN(c3ncccc3C(=O)NC(C(N)=O)C(C)O)CC2)c1 (stereo not given)
The inhibition of the first is higher: 20% for the first, 0% for the second.

Compared with `COCCOCC(=O)N1CCN(c2ccc(C(=O)NC(C(N)=O)C(C)O)cn2)CC1C` (stereo not given), `CC(=O)CCC(=O)N1CCN(c2ccc(C(=O)NC(C(N)=O)C(C)O)cn2)CC1C` (stereo not given) is lower in inhibition: 20% for the first, 10% for the second.

First: CCc1ccc2c(c1)c1nnc(SCC(=O)NCc3ccc4c(c3)OCO4)nc1n2C
Second: CCc1cc2c(cc3c(=O)n(CCCC(=O)NCc4ccc(OC(C)C)cc4)ncn32)s1
The inhibition of the first is lower: 10% for the first, 20% for the second.

Going from `COc1ccc(CNC(=O)c2cc(-c3ccc(OC)c(OC)c3)nc3ccc(CNC(=O)c4cccc(Cl)c4)cc23)c(OC)c1` to `COc1ccc(CCNC(=O)c2ccc3c(c2)nc(-c2cc(OC)c(OC)c(OC)c2)n3CCc2ccc(OC)c(OC)c2)cc1OC`, the inhibition rises from 20% to 30%.

`CCCCCCOc1ccc(/C=N/c2ccc(C)cc2)cc1` and `CCCCCCOC(=O)Oc1ccc(/C=N/c2ccc(OCC)cc2)cc1` are the same in inhibition: 0% for the first, 0% for the second.

Compared with `CC(=O)N1CCc2cc(NC(=O)c3ccc4nc(C)c(N(C)C(=O)CCc5ccccc5)n4c3)ccc21`, `O=C(NCc1ccc(NC(=O)c2cn(Cc3ccccc3)c3ccccc23)cc1)c1cnc2cc(C(F)(F)F)ccc2c1O` is lower in inhibition: 20% for the first, 0% for the second.

`CS(=O)(=O)N1CCC(N(C(=O)COc2ccccc2)C2CCC2)CC1c1cccc(F)c1` (stereo not given) and `Cn1cc(S(=O)(=O)N2CCc3ccccc32)cc1C(=O)N1CCC(Cc2ccccc2)CC1` are the same in inhibition: 30% for the first, 30% for the second.

First: CCCCCCOc1ccc(/C=N/c2ccc(-c3ccc(/N=C/c4ccc(OCCCCCC)c(OC)c4)cc3)cc2)cc1CC
Second: CCCCCOc1ccc(/C=N/c2ccc(/N=C/c3ccc(OCCCCC)cc3)c(Cl)c2)cc1
The inhibition of the first is higher: 79.1% for the first, 0% for the second.

`COc1cccc(/C=C2/S/C(=N/c3ccccc3)N(Cc3ccccc3)C2=O)c1O` and `O=C(O)CN1C(=O)/C(=C/c2cccc(Oc3ccccc3)c2)S/C1=N\c1ccccc1` are the same in inhibition: 0% for the first, 0% for the second.

Going from `COCCNS(=O)(=O)c1ccc2c(c1)NC(=O)C(CO)N2C(=O)CN1CCC(N2CCCCC2)CC1` (stereo not given) to `COCCNS(=O)(=O)c1ccc2c(c1)NC(=O)C(Cc1ccccc1)N2C(=O)CNCc1ccc(OC)cc1` (stereo not given), the inhibition rises from 20% to 30%.

`CCn1c2ccccc2c2cc(/C=C3\SC(=S)N([C@H](Cc4ccccc4)C(=O)O)C3=O)ccc21` and `CCn1c2ccccc2c2cc(/C=C3\SC(=S)N([C@H](Cc4ccc(O)cc4)C(=O)O)C3=O)ccc21` are the same in inhibition: 0% for the first, 0% for the second.

Compared with `CC[C@@H]1CN2CCc3cc(OC)c(OC)cc3[C@@H]2C[C@@H]1C[C@@H]1c2cc(OC)c(OC)cc2CCN1C(=O)COCC(=O)N1CCc2cc(OC)c(OC)cc2[C@@H]1C[C@H]1C[C@H]2c3cc(OC)c(OC)cc3CCN2C[C@@H]1CC`, `COc1cc(CCNC(=O)c2ccc3c(c2)nc(-c2cc(OC)c(OC)c(OC)c2)n3CCc2ccc(OC)c(OC)c2)cc(OC)c1` is higher in inhibition: 0% for the first, 30% for the second.

`CCOc1ccc(/N=C\c2ccc(OCC)c(OCC)c2)cc1` and `C#CCN1C(=O)S/C(=C/c2ccc(OCc3ccc4ccccc4c3)c(OCC)c2)C1=O` are the same in inhibition: 0% for the first, 0% for the second.

`C=CCOC(=O)C1=C(C)NC(SCC(=O)Nc2cccc(Cl)c2)=C(C#N)C1c1ccc(O)c(OC)c1` (stereo not given) and `COc1cccc(C2CC(=O)NC(SCC(=O)Nc3ccccc3C)=C2C#N)c1OC` (stereo not given) are the same in inhibition: 30% for the first, 30% for the second.

Going from `COc1ccc(/C=N/NC(=O)c2cc(O)c(O)c(O)c2)cc1Cn1nc(C)c(Br)c1C` to `COc1cccc(/C=C2/NC(=O)N(c3cccc(Cl)c3)C2=O)c1OCc1cccc(C(=O)O)c1`, the inhibition rises from 10% to 30%.

First: CC(O)C(NC(=O)c1cccnc1N1CCC(CCCC2CCN(C(=O)CCC(=O)c3ccccc3)CC2)CC1)C(N)=O (stereo not given)
Second: CC(O)C(NC(=O)c1cccnc1N1CCN(C(=O)Cc2ccc(-c3ccccc3)cc2)CC1)C(N)=O (stereo not given)
The inhibition of the first is higher: 30% for the first, 20% for the second.

Compared with `COc1cccc(CNC2CC(=O)N(c3ccc(N4C(=O)CC(NCc5cccc(OC)c5OC)C4=O)cc3)C2=O)c1OC` (stereo not given), `COc1ccc(CCn2c(-c3cc(OC)c(OC)c(OC)c3)nc3cc(C(=O)NCCOCCO)ccc32)cc1OC` is higher in inhibition: 10% for the first, 20% for the second.

Compared with `O=C1/C(=C\c2ccc(OCc3cccc4ccccc34)cc2)SC(=S)N1c1cccc(F)c1`, `O=C1/C(=C/c2cccc(Oc3ccccc3)c2)SC(=S)N1Cc1ccccc1` is higher in inhibition: 10% for the first, 20% for the second.

Compared with `Cc1ccc(C)c(N2CCN(C3CN(C(=O)NCCc4ccccc4)CC3O)CC2)c1` (stereo not given), `CC(CC(=O)N1CCCN(c2ccc(C(=O)NC(C(N)=O)C(C)O)cn2)CC1)c1ccccc1` (stereo not given) is lower in inhibition: 10% for the first, 0% for the second.

`COc1cc(CCNC(=O)c2ccc3c(c2)nc(-c2cc(OC)cc(OC)c2)n3CCc2ccc(OC)c(OC)c2)cc(OC)c1` and `COc1cc(C2CC(=O)NC(SCC(=O)Nc3c(C)cc(C)cc3C)=C2C#N)ccc1OCc1ccccc1` (stereo not given) are the same in inhibition: 30% for the first, 30% for the second.

`CCOc1cc(/C=C2/S/C(=N/c3ccccc3)N(c3ccccc3)C2=O)ccc1OCc1ccccc1` and `CCOc1cc(/C=C2/NC(=O)N(Cc3ccccc3F)C2=O)cc(Br)c1OCc1ccc2ccccc2c1` are the same in inhibition: 10% for the first, 10% for the second.

First: O=C1Nc2ccc([N+](=O)[O-])cc2/C1=N/NC(=O)c1ccc(C(=O)N/N=C2\C(=O)Nc3ccc([N+](=O)[O-])cc32)cc1
Second: Cc1ccc(NC(=O)CN2C(=O)N/C(=C/c3ccc(OCc4cccc([N+](=O)[O-])c4)cc3)C2=O)cc1
The inhibition of the first is higher: 10% for the first, 0% for the second.

First: COC(=O)c1ccc(/C=C2/Sc3ccccc3N(Cc3ccccc3F)C2=O)cc1
Second: CC(C)C(=O)NC(Cc1ccc(OCc2ccccc2)cc1)C(=O)NCCCN(C)c1ccccc1 (stereo not given)
The inhibition of the first is lower: 20% for the first, 30% for the second.

First: CC(C)c1ccc(S(=O)(=O)N2CCn3nc(C4CCC(CNC(=O)c5ccco5)CC4)cc32)cc1 (stereo not given)
Second: N#CC1CCCC(NC(=O)c2cccc(S(=O)(=O)Nc3ccc(Br)cc3)c2)C1 (stereo not given)
The inhibition of the first is higher: 20% for the first, 0% for the second.

First: Cc1cc(C)cc(CC(=O)N2CCCN(c3ccc(C(=O)NC(C(N)=O)C(C)O)cn3)CC2)c1 (stereo not given)
Second: CCCCCCCCCCCCCCCCS(=O)(=O)c1ccc(S(=O)(=O)N/N=c2\sc3ccc(S(=O)(=O)O)cc3n2C)cc1C(=O)O
The inhibition of the first is lower: 10% for the first, 20% for the second.

`Nc1c(/N=N/c2ccc(-c3ccc(/N=N/c4ccc(O)cc4)cc3)cc2)c(S(=O)(=O)O)cc2cc(S(=O)(=O)O)c(/N=N/c3ccccc3)c(O)c12` was tested, and the inhibition was 0%.
